# Measured values reported in US7038077B2, “Prodrugs of excitatory amino acids” (Eli Lilly and Company, priority 2001, dated 2006).
row,Structure (SMILES),melting point
1,"COc1ccccc1COC(=O)[C@]1(N)CC[C@H]2[C@H](C(=O)O)[C@H]21 [Example 48, (1S,2S,5R,6S)-2-Amino-bicyclo[3.1.0]hexane-2,6-dicarboxylic acid 2-(2′-methoxy)benzyl ester]",195 °C (dec.)
2,"Cl.N[C@@]1(C(=O)OCc2cc(Cl)ccc2Cl)CC[C@H]2[C@H](C(=O)O)[C@H]21 [Example 33, (1S,2S,5R,6S)-2-Amino-bicyclo[3.1.0]hexane-2,6-dicarboxylic acid 2-(2′,5′-dichloro)benzyl ester hydrochloride]",173 to 175 °C
3,"Cl.N[C@@]1(C(=O)OCc2ccc(Cl)cc2Cl)CC[C@H]2[C@H](C(=O)O)[C@H]21 [Example 29, (1S,2S,5R,6S)-2-Amino-bicyclo[3.1.0]hexane-2,6-dicarboxylic acid 2-(2′,4′-dichloro)benzyl ester hydrochloride]",135 to 137 °C
4,"Cc1ccc(C)c(COC(=O)[C@]2(N)CC[C@H]3[C@H](C(=O)O)[C@H]32)c1.Cl [Example 41, (1S,2S,5R,6S)-2-Amino-bicyclo[3.1.0]hexane-2,6-dicarboxylic acid 2-(2′,5′-dimethyl)benzyl ester hydrochloride]",70 °C (dec.)
5,Cl.N[C@@]1(C(=O)OCc2ccccc2C(F)(F)F)CC[C@H]2[C@H](C(=O)O)[C@H]21,> 175 °C (dec.)

# Continued, values first:
row,melting point,Structure (SMILES)
1,98 to 99 °C,"Cl.N[C@@]1(C(=O)OCc2cc(F)cc(F)c2)CC[C@H]2[C@H](C(=O)O)[C@H]21 [Example 35, (1S,2S,5R,6S)-2-Amino-bicyclo[3.1.0]hexane-2,6-dicarboxylic acid 2-(3′,5′-difluoro)benzyl ester hydrochloride]"
2,190 to 191 °C,"Cl.N[C@@]1(C(=O)OCc2ccccc2Br)CC[C@H]2[C@H](C(=O)O)[C@H]21 [Example 34, (1S,2S,5R,6S)-2-Amino-bicyclo[3.1.0]hexane-2,6-dicarboxylic acid 2-(2′-bromo)benzyl ester hydrochloride]"
3,> 220 °C (dec.),"Cl.N[C@@]1(C(=O)OCc2ccccc2F)CC[C@H]2[C@H](C(=O)O)[C@H]21 [Example 31, (1S,2S,5R,6S)-2-Amino-bicyclo[3.1.0]hexane-2,6-dicarboxylic acid 2-(2′-fluoro)benzyl ester hydrochloride]"
4,225 °C (dec.),"N[C@@]1(C(=O)OCc2cccc(F)c2)CC[C@H]2[C@H](C(=O)O)[C@H]21 [Example 54, (1S,2S,5R,6S)-2-Amino-bicyclo[3.1.0]hexane-2,6-dicarboxylic acid 2-(3′-fluoro)benzyl ester]"
